The values below come from ChEMBL document CHEMBL3886569, “Substituted isoquinolines as CRTH2 receptor modulators” (2016).

A word on the Ki: it is a dissociation constant, usually derived from enzyme kinetics or from competition with a known ligand.

In the assay the target is T1, Prostaglandin D2 receptor 2 (Homo sapiens, UniProt Q9Y5Y4).
T1 sequence (Q9Y5Y4 whole entry): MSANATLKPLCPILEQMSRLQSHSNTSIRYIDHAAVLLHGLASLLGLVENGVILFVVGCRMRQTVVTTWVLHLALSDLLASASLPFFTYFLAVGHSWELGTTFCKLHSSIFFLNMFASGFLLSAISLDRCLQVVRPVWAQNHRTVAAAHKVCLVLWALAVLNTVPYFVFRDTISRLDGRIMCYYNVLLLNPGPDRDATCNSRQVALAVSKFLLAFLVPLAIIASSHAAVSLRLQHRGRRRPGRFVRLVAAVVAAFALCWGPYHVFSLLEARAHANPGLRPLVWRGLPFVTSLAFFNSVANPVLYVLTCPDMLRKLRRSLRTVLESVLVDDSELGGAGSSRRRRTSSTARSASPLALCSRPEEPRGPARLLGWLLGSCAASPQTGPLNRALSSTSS
Kind of assay: Radioligand Binding Assay: Radioligand binding was performed using filtration or scintillation proximity assay (SPA) technology. SPA assays were done at room temperature in 10 mM HEPES pH 7.4, 1 mM EDTA containing 2 mM MnCl2 and 16 nM [3H]-PGD2 (PerkinElmer, Waltham, Mass.) (164 Ci mmol-1), in a final volume of 0.05 mL. Competing ligands were diluted in dimethylsulfoxide and added using very low volumes (500 nL). The reaction was initiated by the addition of a mixture of 3.52 ug of membrane protein prepared from a human embryonic kidney (HEK)-hCRTH2 cell line adhered to 140 ug of wheatgerm agglutinin SPA beads (PerkinElmer). Total and non-specific binding were determined in the absence and the presence of a CRTH2 antagonist, respectively. The reaction was routinely conducted for 60 minutes at room temperature followed by centrifugation for 5 minutes at 1000 RPM. The radioactivity was measured with a TopCountNXT (PerkinElmer). Filtration binding assays were done in a similar way with minor differences. The assay volume was 0.20 mL and competing ligands in dimethylsulfoxide were added in 2 uL. [3H]-PGD2 was used at 0.6 nM, and reactions were initiated by the addition of 10 ug of membrane protein. Reactions were terminated by filtration through GF/C filter plates (PerkinElmer) presoaked in 10 mM HEPES. After washing with buffer, plates were dried in a 50° C. oven for 1 h, scintillation cocktail was added and radioactivity was measured. Results determined using the SPA-based assay were similar to those from the filtration binding assay. (Scintillation proximity formats need no separation of bound from free tracer.)
In the case of `O=C(O)CCCCc1cc2cc(-c3noc(C4Cc5ccccc5C4)n3)ccc2c(=O)n1-c1ccc(F)cc1`, the inhibition constant Ki turned out to be 21.5 nM.

Turning to `O=C(CCCCc1cc2cc(C(=O)N[C@@H]3CCCc4cc(F)ccc43)ccc2c(=O)n1-c1ccc(F)cc1)NS(=O)(=O)C1CC1`, the inhibitory constant (Ki) stood at 10.9 nM.

For the compound `CC1(c2nc3ccc(F)cc3o2)CC(c2ccc3c(=O)n(-c4ccc(F)cc4)c(CCCCC(=O)O)cc3c2)=NO1` (stereo not given), the inhibition constant Ki came out at 25.4 nM.

Regarding `O=C(O)CCCCc1cc2cc(-c3noc(Cc4ccc(F)cc4)n3)ccc2c(=O)n1-c1ccc(F)cc1`, the inhibitory constant (Ki) came to 7.79 nM.

As for `CC1(c2nc3ccc(F)cc3o2)CC(c2ccc3c(=O)n(-c4ccc(F)cc4)c(CCCCC(=O)O)c(Cl)c3c2)=NO1` (stereo not given), the Ki worked out at 79.1 nM.
